Reference: ChEMBL document CHEMBL1156829 (Proc Natl Acad Sci U S A, 2008)

Assays:
Plasmodium falciparum [1] = experiment: NOVARTIS: Inhibition of Plasmodium falciparum 3D7 (drug-susceptible) proliferation in erythrocyte-based infection assay; format: functional, organism-based; conditions: Plasmodium falciparum, 3D7
Plasmodium falciparum [2] = experiment: NOVARTIS: Inhibition of Plasmodium falciparum W2 (drug-resistant) proliferation in erythrocyte-based infection assay; format: functional, organism-based; conditions: Plasmodium falciparum, W2; read-out: EC50
[3] = NOVARTIS: Cytotoxicity against human hepatocellular carcinoma cell line (Huh7); format: toxicity, cell-based, Huh-7; conditions: Huh7 cells (hepatocellular carcinoma cell line)

Row | SMILES | EC50 (Plasmodium falciparum [1]) | EC50 (Plasmodium falciparum [2]) | CC50 [3]
1 | O=C(C[n+]1ccccc1)NN=Cc1ccc(Cl)c(Cl)c1 | 2840 nM | 3380 nM | > 100000 nM
2 | Nc1nc(N)c2cc(S(=O)(=O)c3ccc4ccccc4c3)ccc2n1 | 97.3 nM | 1710 nM | 49500 nM
3 | Oc1cccc2ccc(Nc3ccccn3)nc12 | 679 nM | 302 nM | 8870 nM
4 | COc1cccc2c1C(=O)C1C(O)=C3C(=C(O)C1C2=O)CC(O)(C(C)=NN=C1CC(C)(C)N(O)C(C)(C)C1)CC3OC1CC(C)(N)C(O)CO1 (stereo not given) | 416 nM | 337 nM | > 10000 nM
5 | CCOC(=O)c1c(NC(C)=O)sc2c1CCN(C(C)C)C2 | 1560 nM | 3410 nM | > 100000 nM
6 | CCCCCCn1c2c(c(=N)c3c1CCC3)CCCC2 | 364 nM | 336 nM | > 10000 nM
7 | NS(=O)(=O)c1ccc(CCNC(=O)C=Cc2ccc3c(c2)OCO3)cc1 | > 7760 nM | 3390 nM | > 100000 nM
8 | CC(=O)N1c2ccccc2C(C)(c2ccc(Br)cc2)CC1(C)C (stereo not given) | 4270 nM | 2420 nM | 71400 nM
9 | CC(C)C1=Nc2cc(C(N)=O)ccc2CN1C1CC1 | 30.8 nM | > 338 nM | > 10000 nM
10 | O=C(NCCCCNc1ccnc2cc(Cl)ccc12)c1ccc(Br)cc1 | 218 nM | 291 nM | > 8730 nM
11 | COc1ccc(OC)c(-c2ccc(C(=O)N3CCN(C/C=C/c4ccccc4)CC3)c(N(C)C)n2)c1 | 922 nM | 333 nM | > 10000 nM
12 | COc1ccccc1N1CCN(C2CCN(C3CCC(c4ccccc4)CC3)CC2)CC1 (stereo not given) | 293 nM | 670 nM | 20200 nM
13 | CC(C)NC(=O)[C@@H]1C[C@@H](NCc2cccnc2)CN1Cc1ccc2ccccc2c1 | > 10900 nM | 3310 nM | > 100000 nM
14 | O=C(Nc1ccc(Cl)c(Cl)c1)Nc1cc(C(=O)NCCCN2CCCCCC2)ccc1Cl | 791 nM | 1420 nM | > 43000 nM
15 | C=C1C=CN(Cc2ccccc2)c2ccc(OC)cc21 | 451 nM | 330 nM | > 10000 nM
16 | Cc1ccc(-n2c(SCc3cccc4ccccc34)nc3sc4c(c3c2=O)CCN(C)C4)cc1 | > 6520 nM | 3300 nM | > 100000 nM
17 | CC(C)(C)c1ccc(C(=O)Nc2ccc(NC(=O)c3ccc(-c4ccc([N+](=O)[O-])cc4)o3)cc2)cc1 | 1210 nM | 3300 nM | > 100000 nM
18 | CCCCC(=O)N(CCCC(C)Nc1cc(OC)cc2cccnc12)Cc1ccccc1OC (stereo not given) | 348 nM | 35 nM | 1060 nM
19 | Cc1ccccc1NC(=S)NC(Cc1ccccc1)c1ccccc1 (stereo not given) | 374 nM | 340 nM | > 10000 nM
20 | Cc1ccccc1Nc1nc(NCc2ccco2)c2ccccc2n1 | 548 nM | 529 nM | 15600 nM
21 | Clc1cccc(CSc2nc(Nc3ccc4c(c3)OCO4)c3ccccc3n2)c1 | 1170 nM | 2790 nM | > 82900 nM
22 | COc1ccc(C(C)=NNc2nnc(C)c(O)n2)cc1 | 188 nM | 258 nM | 7680 nM
23 | COCCN(C(C)C(=O)NC(CN1CCCC1)c1ccccc1)S(=O)(=O)c1c(C)noc1C (stereo not given) | 964 nM | 406 nM | > 11900 nM
24 | COc1ccc(NC(=O)C2=C(C)NC(=S)NC2c2ccc(O)cc2)cc1 (stereo not given) | 1420 nM | 342 nM | > 10000 nM
25 | Cc1cccc(NC(=O)c2ccc(NCCCC3CCCCCC3)c([N+](=O)[O-])c2)c1 | 441 nM | 643 nM | 18800 nM

Row | SMILES | EC50 (Plasmodium falciparum [1]) | EC50 (Plasmodium falciparum [2]) | CC50 [3]
26 | COc1ccc2[nH]c3c(NCCN4CCCCC4)ncnc3c2c1 | 785 nM | 976 nM | 28600 nM
27 | N#Cc1cc(N2CC3CC(C2)c2cccc(=O)n2C3)c([N+](=O)[O-])cc1C#N (stereo not given) | > 12500 nM | 3360 nM | > 100000 nM
28 | CCCCCCCn1c2c(c(=N)c3c1CCC3)CCCC2 | 69.3 nM | 91.4 nM | 2720 nM
29 | Cc1nc(-c2nc3c(s2)CN(C(=O)CCc2cccnc2)CC3)cs1 | 1090 nM | 335 nM | > 10000 nM
30 | CCOc1ccc(C2N(C)c3ccccc3N2C)cc1 | 250 nM | 344 nM | > 10000 nM
31 | N#Cc1cc2[nH]c3ccccc3c2n(-c2ccc([N+](=O)[O-])cc2)c1=N | 530 nM | 3440 nM | > 100000 nM
32 | CCCCc1ccc(Nc2ncnc3sc4c(c23)CCCC4)cc1 | 11400 nM | 3390 nM | > 100000 nM
33 | COc1cccc2c1C(=O)c1c(O)c3c(c(O)c1C2=O)CC(O)(C(=O)CO)CC3OC1CC(N)C(O)C(C)O1 (stereo not given) | 169 nM | 180 nM | 5250 nM
34 | Cc1ccc(NC(=O)CSc2nc3cc(C(=O)NCCCOC(C)C)ccc3c(=O)n2Cc2ccco2)cc1Cl | 1940 nM | 340 nM | > 10000 nM
35 | CCN1CC=C(c2c[nH]c3ccccc23)CC1 | 885 nM | 339 nM | > 10000 nM
36 | CCC1CCCCN1C(=O)c1cc(-c2ccccc2OC)on1 (stereo not given) | > 598 nM | 340 nM | > 10000 nM
37 | CC(=NNC(=S)N(C)C)c1ccccn1 | 311 nM | 338 nM | > 10000 nM
38 | COc1ccc(-c2ncc([C@@H]3C[C@H]4CN(c5ccccc5)C(=O)[C@]45CCCN35)cn2)cc1 | 2260 nM | 995 nM | 29800 nM
39 | O=C(NNc1cccc(F)n1)C(F)(F)F | 670 nM | 340 nM | > 10000 nM
40 | CC(=C(Cl)Cl)C(Br)=C(Br)CO | 119 nM | 1690 nM | 50900 nM
41 | O=C(CCl)NCCNc1ncc(C(F)(F)F)cc1Cl | 453 nM | 612 nM | 17800 nM
42 | CCN1C(C(=O)c2ccccc2)=C(Nc2c(C)n(C)n(-c3ccccc3)c2=O)c2ccccc2S1(=O)=O | > 12500 nM | 3310 nM | > 100000 nM
43 | O=C(Nc1ccc(F)cc1)N1CCN(c2ccc3nnc(-c4ccccc4)n3n2)CC1 | > 12500 nM | 3290 nM | > 100000 nM
44 | COC(=O)c1sccc1S(=O)(=O)N1CCCC(c2[nH]ncc2-c2ccccc2)C1 (stereo not given) | 3030 nM | 3440 nM | > 100000 nM
45 | CCC(C)(O)C(=O)O[C@H]1C(=O)OC2CC3C(C)=C[C@H](O)[C@@H](O)[C@]3(C)C3C24CO[C@]3(O)[C@H](O)[C@H](C)C14 (stereo not given in full) | 227 nM | 215 nM | > 6250 nM
46 | COc1ccc(C2=C(c3ccc(OC)cc3)C3(c4ccccc4)C(=O)C2(c2ccccc2)C2C(=O)N(c4ccc(F)cc4)C(=O)C23)cc1 (stereo not given) | 2240 nM | 3350 nM | > 100000 nM
47 | CCOC(=O)c1c(CNc2ccncc2)n(C)c2cc(Br)c(O)cc12 | 315 nM | 333 nM | > 10000 nM
48 | O=C1N=C(N2CCOCC2)S/C1=C/c1cccc2ccccc12 | > 1250 nM | 329 nM | > 10000 nM
49 | Cc1ccc(NC(=O)N2CCN(C(=O)c3nc(-c4ccccc4)nc(C)c3C(=O)OC(C)C)CC2C)c(C)c1 (stereo not given) | > 271 nM | 336 nM | > 10000 nM
50 | Cc1cccc2cc(CNC34CC5CC(CC(C5)C3)C4)c(N3CCC(N4CCC(O)CC4)CC3)nc12 | 793 nM | 163 nM | 4900 nM
